Assay results: the OligoGym collection
HELM strings list units from the 5' end as sugar, base in round brackets, then linkage (d deoxyribose, r ribose, m 2'-O-methyl, p phosphodiester). Strings are as the collection lists them, not checked against the first reports. ss, as = sense and antisense strand; [una] = unlocked nucleic acid; [fl2r] = 2'-fluoro

Details: siRNA
Also: test system not given here.

Substance	target mRNA knockdown
RNA1{[una](U)p.r(G)p.r(A)p.r(A)p.r(U)p.r(C)p.r(A)p.r(G)p.r(A)p.r(A)p.r(G)p.r(A)p.r(U)p.r(G)p.r(A)p.r(A)p.r(G)p.r(U)p.r(C)p.r(A)p.r(A)}|RNA2{[una](G)p.r(A)p.r(C)p.r(U)p.r(U)p.r(C)p.r(A)p.r(U)p.r(C)p.r(U)p.r(U)p.r(C)p.r(U)p.r(G)p.r(A)p.r(U)p.r(U)p.r(C)p.r(A)p.r(A)p.r(G)}$$$RNA1{StrandType:ss}|RNA2{StrandType:as}$	0%
RNA1{d(G)p.d(C)p.d(A)p.d(G)p.d(C)p.d(A)p.d(C)p.d(G)p.d(A)p.d(C)p.d(U)p.d(U)p.d(C)p.d(U)p.d(U)p.d(C)p.d(A)p.d(A)p.d(G)p.r(T)p.r(T)}|RNA2{d(C)p.d(U)p.d(U)p.d(G)p.d(A)p.d(A)p.d(G)p.d(A)p.d(A)p.d(G)p.d(U)p.d(C)p.d(G)p.d(U)p.d(G)p.d(C)p.d(U)p.d(G)p.d(C)p.r(T)p.r(T)}$$$RNA1{StrandType:ss}|RNA2{StrandType:as}$	0%
RNA1{d(G)p.d(C)p.d(A)p.d(G)p.d(C)p.d(A)p.d(C)p.d(G)p.d(A)p.d(C)p.d(U)p.d(U)p.d(C)p.d(U)p.d(U)p.d(C)p.d(A)p.d(A)p.d(G)p.r(T)p.r(T)}|RNA2{r(C)p.r(U)p.r(U)p.r(G)p.r(A)p.r(A)p.r(G)p.r(A)p.r(A)p.r(G)p.r(U)p.r(C)p.r(G)p.r(U)p.r(G)p.r(C)p.r(U)p.r(G)p.r(C)p.r(T)p.r(T)}$$$RNA1{StrandType:ss}|RNA2{StrandType:as}$	38%
RNA1{m(A)p.m(A)p.m(G)p.m(G)p.m(A)p.m(G)p.m(A)p.m(U)p.m(C)p.m(A)p.m(A)p.m(C)p.m(A)p.m(U)p.m(U)p.m(U)p.m(U)p.m(C)p.m(A)p.r(T)p.r(T)}|RNA2{[fl2r](U)p.r(G)p.r(A)p.r(A)p.r(A)p.r(A)p.[fl2r](U)p.r(G)p.r(U)p.r(U)p.r(G)p.r(A)p.[fl2r](U)p.[fl2r](C)p.[fl2r](U)p.[fl2r](C)p.[fl2r](C)p.[fl2r](U)p.[fl2r](U)p.r(T)p.r(T)}$$$RNA1{StrandType:ss}|RNA2{StrandType:as}$	71%
RNA1{m(A)p.m(A)p.m(G)p.m(G)p.m(A)p.m(G)p.m(A)p.m(U)p.m(C)p.m(A)p.m(A)p.m(C)p.m(A)p.m(U)p.m(U)p.m(U)p.m(U)p.m(C)p.m(A)p.r(T)p.r(T)}|RNA2{m(U)p.r(G)p.r(A)p.r(A)p.r(A)p.r(A)p.m(U)p.r(G)p.r(U)p.r(U)p.r(G)p.r(A)p.m(U)p.m(C)p.m(U)p.m(C)p.m(C)p.m(U)p.m(U)p.r(T)p.r(T)}$$$RNA1{StrandType:ss}|RNA2{StrandType:as}$	29%
RNA1{m(A)p.m(A)p.m(G)p.m(G)p.m(A)p.m(G)p.m(A)p.m(U)p.m(C)p.m(A)p.m(A)p.m(C)p.m(A)p.m(U)p.m(U)p.m(U)p.m(U)p.m(C)p.m(A)p.r(T)p.r(T)}|RNA2{r(U)p.r(G)p.r(A)p.r(A)p.r(A)p.r(A)p.r(U)p.r(G)p.r(U)p.r(U)p.r(G)p.r(A)p.r(U)p.r(C)p.r(U)p.r(C)p.r(C)p.m(U)p.m(U)p.r(T)p.r(T)}$$$RNA1{StrandType:ss}|RNA2{StrandType:as}$	77%
RNA1{m(A)p.m(A)p.m(G)p.r(G)p.r(A)p.m(G)p.m(A)p.m(U)p.r(C)p.r(A)p.r(A)p.m(C)p.m(A)p.m(U)p.r(U)p.r(U)p.m(U)p.m(C)p.m(A)p.r(T)p.r(T)}|RNA2{m(U)p.m(G)p.m(A)p.r(A)p.r(A)p.m(A)p.m(U)p.m(G)p.r(U)p.r(U)p.r(G)p.m(A)p.m(U)p.m(C)p.r(U)p.r(C)p.m(C)p.m(U)p.m(U)p.r(T)p.r(T)}$$$RNA1{StrandType:ss}|RNA2{StrandType:as}$	45%
RNA1{m(A)p.m(A)p.m(G)p.r(G)p.r(A)p.r(G)p.r(A)p.r(U)p.r(C)p.r(A)p.r(A)p.r(C)p.r(A)p.r(U)p.r(U)p.r(U)p.m(U)p.m(C)p.m(A)p.r(T)p.r(T)}|RNA2{m(U)p.m(G)p.m(A)p.r(A)p.r(A)p.r(A)p.r(U)p.r(G)p.r(U)p.r(U)p.r(G)p.r(A)p.r(U)p.r(C)p.r(U)p.r(C)p.m(C)p.m(U)p.m(U)p.r(T)p.r(T)}$$$RNA1{StrandType:ss}|RNA2{StrandType:as}$	76%
RNA1{m(A)p.m(A)p.m(G)p.r(G)p.r(A)p.r(G)p.r(A)p.r(U)p.r(C)p.r(A)p.r(A)p.r(C)p.r(A)p.r(U)p.r(U)p.r(U)p.r(U)p.r(C)p.r(A)p.r(T)p.r(T)}|RNA2{m(U)p.m(G)p.m(A)p.r(A)p.r(A)p.r(A)p.r(U)p.r(G)p.r(U)p.r(U)p.r(G)p.r(A)p.r(U)p.r(C)p.r(U)p.r(C)p.r(C)p.r(U)p.r(U)p.r(T)p.r(T)}$$$RNA1{StrandType:ss}|RNA2{StrandType:as}$	60%
RNA1{m(A)p.m(A)p.r(C)p.r(C)p.r(C)p.m(A)p.r(C)p.r(C)p.m(A)p.r(C)p.m(A)p.r(G)p.r(C)p.m(U)p.m(A)p.r(G)p.m(A)p.m(A)p.r(C)p.m(U)p.m(U)}|RNA2{m(A)p.m(A)p.r(G)p.m(U)p.m(U)p.r(C)p.m(U)p.m(A)p.r(G)p.r(C)p.m(U)p.r(G)p.m(U)p.r(G)p.r(G)p.m(U)p.r(G)p.r(G)p.r(G)p.m(U)p.m(U)}$$$RNA1{StrandType:ss}|RNA2{StrandType:as}$	7%
RNA1{m(A)p.m(A)p.r(C)p.r(C)p.r(C)p.m(A)p.r(C)p.r(C)p.m(A)p.r(C)p.m(A)p.r(G)p.r(C)p.m(U)p.m(A)p.r(G)p.m(A)p.m(A)p.r(C)p.m(U)p.m(U)}|RNA2{r(A)p.r(A)p.r(G)p.r(U)p.r(U)p.r(C)p.m(U)p.m(A)p.r(G)p.r(C)p.r(U)p.r(G)p.r(U)p.r(G)p.r(G)p.r(U)p.r(G)p.r(G)p.r(G)p.r(U)p.r(U)}$$$RNA1{StrandType:ss}|RNA2{StrandType:as}$	44%
RNA1{m(A)p.m(A)p.r(C)p.r(C)p.r(C)p.m(A)p.r(C)p.r(C)p.m(A)p.r(C)p.m(A)p.r(G)p.r(C)p.m(U)p.m(A)p.r(G)p.m(A)p.m(A)p.r(C)p.m(U)p.m(U)}|RNA2{r(A)p.r(A)p.r(G)p.r(U)p.r(U)p.r(C)p.r(U)p.r(A)p.r(G)p.r(C)p.r(U)p.r(G)p.r(U)p.r(G)p.r(G)p.r(U)p.r(G)p.r(G)p.r(G)p.r(U)p.r(U)}$$$RNA1{StrandType:ss}|RNA2{StrandType:as}$	51%
RNA1{m(A)p.m(A)p.r(C)p.r(C)p.r(C)p.m(A)p.r(C)p.r(C)p.m(A)p.r(C)p.m(A)p.r(G)p.r(C)p.m(U)p.m(A)p.r(G)p.m(A)p.m(A)p.r(C)p.r(U)p.r(U)}|RNA2{r(A)p.r(A)p.r(G)p.r(U)p.r(U)p.r(C)p.m(U)p.r(A)p.r(G)p.r(C)p.r(U)p.r(G)p.r(U)p.r(G)p.r(G)p.r(U)p.r(G)p.r(G)p.r(G)p.r(U)p.r(U)}$$$RNA1{StrandType:ss}|RNA2{StrandType:as}$	32%
RNA1{m(A)p.m(A)p.r(C)p.r(C)p.r(C)p.m(A)p.r(C)p.r(C)p.m(A)p.r(C)p.m(A)p.r(G)p.r(C)p.r(U)p.m(A)p.r(G)p.m(A)p.m(A)p.r(C)p.m(U)p.m(U)}|RNA2{r(A)p.r(A)p.r(G)p.r(U)p.r(U)p.r(C)p.r(U)p.r(A)p.r(G)p.r(C)p.r(U)p.r(G)p.r(U)p.r(G)p.r(G)p.r(U)p.r(G)p.r(G)p.r(G)p.r(U)p.r(U)}$$$RNA1{StrandType:ss}|RNA2{StrandType:as}$	42%
RNA1{m(A)p.m(A)p.r(U)p.m(A)p.m(A)p.m(G)p.r(C)p.m(A)p.m(G)p.r(C)p.r(U)p.r(C)p.m(G)p.r(C)p.m(G)p.r(C)p.r(U)p.r(C)p.r(C)p.r(T)p.r(T)}|RNA2{r(G)p.r(G)p.r(A)p.r(G)p.r(C)p.r(G)p.r(C)p.r(G)p.r(A)p.r(G)p.r(C)p.r(U)p.r(G)p.r(C)p.r(U)p.r(U)p.r(A)p.r(U)p.r(U)p.r(T)p.r(T)}$$$RNA1{StrandType:ss}|RNA2{StrandType:as}$	64%
RNA1{m(A)p.r(A)p.m(A)p.r(C)p.m(C)p.r(C)p.m(C)p.r(U)p.m(A)p.r(G)p.m(A)p.r(G)p.m(G)p.r(G)p.m(C)p.r(A)p.m(A)p.r(G)p.m(U)p.r(T)p.r(T)}|RNA2{r(A)p.r(C)p.r(U)p.r(U)p.r(G)p.r(C)p.r(C)p.r(C)p.r(U)p.r(C)p.r(U)p.r(A)p.r(G)p.r(G)p.r(G)p.r(G)p.r(U)p.r(U)p.r(U)p.r(T)p.r(T)}$$$RNA1{StrandType:ss}|RNA2{StrandType:as}$	62%
RNA1{m(A)p.r(A)p.m(A)p.r(C)p.m(C)p.r(U)p.m(C)p.r(A)p.m(G)p.r(C)p.m(C)p.r(C)p.m(U)p.r(A)p.m(A)p.r(C)p.m(G)p.r(G)p.m(U)p.r(T)p.r(T)}|RNA2{r(A)p.m(C)p.m(C)p.r(G)p.r(U)p.r(U)p.r(A)p.r(G)p.r(G)p.r(G)p.m(C)p.r(U)p.r(G)p.r(A)p.r(G)p.r(G)p.r(U)p.r(U)p.r(U)p.r(T)p.r(T)}$$$RNA1{StrandType:ss}|RNA2{StrandType:as}$	28%
RNA1{m(A)p.r(A)p.m(A)p.r(C)p.m(C)p.r(U)p.m(C)p.r(A)p.m(G)p.r(C)p.m(C)p.r(C)p.m(U)p.r(A)p.m(A)p.r(C)p.m(G)p.r(G)p.m(U)p.r(T)p.r(T)}|RNA2{r(A)p.r(C)p.r(C)p.r(G)p.r(U)p.r(U)p.r(A)p.r(G)p.r(G)p.r(G)p.r(C)p.r(U)p.r(G)p.r(A)p.r(G)p.r(G)p.r(U)p.r(U)p.r(U)p.r(T)p.r(T)}$$$RNA1{StrandType:ss}|RNA2{StrandType:as}$	51%
RNA1{m(A)p.r(A)p.m(A)p.r(C)p.m(G)p.r(A)p.m(G)p.r(A)p.m(G)p.r(A)p.m(G)p.r(C)p.m(C)p.r(C)p.m(A)p.r(C)p.m(C)p.r(U)p.m(U)p.r(T)p.r(T)}|RNA2{r(A)p.r(A)p.r(G)p.r(G)p.r(U)p.r(G)p.r(G)p.r(G)p.m(C)p.r(U)p.m(C)p.r(U)p.m(C)p.r(U)p.m(C)p.r(G)p.r(U)p.r(U)p.r(U)p.r(T)p.r(T)}$$$RNA1{StrandType:ss}|RNA2{StrandType:as}$	37%
RNA1{m(A)p.r(A)p.m(A)p.r(C)p.m(G)p.r(U)p.m(G)p.r(A)p.m(C)p.r(U)p.m(U)p.r(U)p.m(G)p.r(G)p.m(U)p.r(U)p.m(C)p.r(C)p.m(U)p.r(T)p.r(T)}|RNA2{r(A)p.m(G)p.m(G)p.r(A)p.r(A)p.r(C)p.r(C)p.r(A)p.r(A)p.r(A)p.m(G)p.r(U)p.r(C)p.r(A)p.r(C)p.m(G)p.r(U)p.r(U)p.r(U)p.r(T)p.r(T)}$$$RNA1{StrandType:ss}|RNA2{StrandType:as}$	37%
RNA1{m(A)p.r(A)p.m(A)p.r(G)p.m(C)p.r(G)p.m(G)p.r(U)p.m(G)p.r(G)p.m(A)p.r(U)p.m(C)p.r(A)p.m(G)p.r(C)p.m(U)p.r(C)p.m(U)p.r(T)p.r(T)}|RNA2{r(A)p.m(G)p.r(A)p.m(G)p.r(C)p.r(U)p.r(G)p.r(A)p.r(U)p.r(C)p.r(C)p.r(A)p.r(C)p.r(C)p.m(G)p.r(C)p.r(U)p.r(U)p.r(U)p.r(T)p.r(T)}$$$RNA1{StrandType:ss}|RNA2{StrandType:as}$	43%
